Measurements from patent US20260248969A1, “PEPTIDE MULTIMER PRODUCTS AND METHODS” (REGENTS OF THE UNIVERSITY OF MICHIGAN, priority 2023, published 2026).
Blank lines part the entries; values can stand above or below the molecule they belong to. Residues, ends and D or L forms follow the SMILES beside them. No end group written: not given here. *: point of attachment. IRDye800CW = CC1(C)C(/C=C/C2=C(Oc3ccc(S(=O)(=O)O)cc3)C(=C/C=C3/N(CCCCS(=O)(=O)O)c4ccc(S(=O)(=O)O)cc4C3(C)C)/CCC2)=[N+](CCCCCC(=O)*)c2ccc(S(=O)(=O)[O-])cc21

Tests used:
[1] = system: orthotopic HCC PDX tumors; experiment: In vivo MR imaging of tumor uptake, orthotopic HCC PDX model; parameters: species or system mouse; conditions: peak uptake 0.5 hours post-injection, same tumor in n=3 mice
Procedure: (§1) In vivo imaging was performed to assess HCC tumor uptake, biodistribution, and clearance of the optimized multimer. […] The target-to-background (T/B) ratio for the multimer was ~1.8-fold greater than that for monomer and free Gd-DOTA from the same tumor in n=3 animals. The target region was segmented using the Chan-Vese algorithm. The background region was defined by dilating the target region. Clearance of the MR signal occurred after ~4 hours post-injection. Data from whole body NIR fluorescence images collected in vivo from the orthotopic HCC tumor following intravenous injection of the lead candidate EpCAM target and control peptides is shown in FIG. 6C. […] For the differences and variances shown in FIG. 60, the power is >95% to obtain P<0.01 for target versus control using n=8 mice per group.
In vivo tumor uptake of the peptide multimer was evaluated in an orthotopic HCC PDX mouse model using T1-weighted MR images. The Gd-DOTA labeled peptide multimer and peptide monomers specific for GPC3, CD44, and EpCAM were intravenously injected at a concentration of 300 μM in 200 μL of PBS via the tail vein of mice bearing orthotopic PDX tumors, FIG. 13A-E. Gd-DOTA (300 μM in 200 μL PBS) was also intravenously injected as a control. T1-weighted MR images were acquired using a 7T horizontal bore small animal magnet (SGRAD 205/120/HD/S, Agilent Technologies). […]

[2] = system: orthotopic HCC PDX tumors; experiment: In vivo whole body NIR fluorescence imaging of orthotopic HCC PDX tumors; parameters: species or system mouse; conditions: P<1×10^−4 by paired t-test
Procedure: as §1

CD44 [3] = experiment: Co-localization of peptide monomer and anti-CD44-AF488 binding to SK-Hep1 cells; conditions: SK-Hep1 human HCC cells
Procedure: Specific binding of the optimized IRDye800-labeled […] monomer peptide was substantiated using a co-localization of binding to known antibodies. Human Hep3B, HepG2, and Sk-Hep1 HCC cells that overexpress early-stage HCC targets were used. A Pearson's correlation coefficient ρ was calculated from fluorescence intensities on merged images. Measurements were made from n=10 cells chosen randomly from 3 slides. Data for CD44 is shown in FIG. 4A, and similar data was obtained for GPC3 and EpCAM. As shown in the figure, binding by WKG*-IRDye800 and anti-CD44-AF488 to the surface (arrows) of Sk-Hep1 cells co-localized with a correlation of p=0.81 measured on the merged image.

CD44 [4] = experiment: Apparent dissociation constant by flow cytometry on SK-Hep1 cells; assay type: binding, human; conditions: 0-200 nM, R^2=0.99
Procedure: The equilibrium dissociation constant kd=1/ka was calculated by performing using a least square fit of the data to the non-linear equation I=(I0+Imaxka[X])/(I0+ka[X]). I0 and Imax are the initial and maximum fluorescence intensities, corresponding to no peptide and at saturation, respectively, and [X] represents the concentration of the bound peptide. Results are the mean values from 3 independent experiments.
The apparent dissociation constant (kd) of the IRDye800-labeled WKG* peptide monomer was measured to provide an estimate of binding affinity. The IRDye800-labeled monomer was incubated with human HCC cells over a range of concentrations. Fluorescence intensities were measured with flow cytometry. WKG*-IRDye800 was incubated with SK-Hep1 cells over concentrations ranging from 0-200 nM, and the fluorescence intensity was measured with flow cytometry.

[5] = mouse, in vivo, iv
Procedure: C) Serum stability of WKG*-IRDye800 (200 μM in 200 μL of PBS) in mice (n=5) was measured following intravenous injection. Serum was collected at various time points from 0-24 hours post-injection.
The optimized WKG* monomer labeled with IRDye800 was incubated in serum to determine half-life T1/2. Stability in mouse serum over time was measured using analytical RP-HPLC. The relative concentration was calculated from the area-under-the-peak, and the intensities were fit to a first order kinetic model, and the serum half-life T1/2 was determined.

[6] = target: T1, CD44 (cluster of differentiation 44) (human, UniProt P16070 21-742); experiment: flow cytometry, labeled peptide 0-200 nM on SK-Hep1 human HCC cells; apparent dissociation constant
T1 construct: whole, on cells; Endogenous target on human HCC cells and tissues; no recombinant protein was used
T1 sequence (P16070 21-742): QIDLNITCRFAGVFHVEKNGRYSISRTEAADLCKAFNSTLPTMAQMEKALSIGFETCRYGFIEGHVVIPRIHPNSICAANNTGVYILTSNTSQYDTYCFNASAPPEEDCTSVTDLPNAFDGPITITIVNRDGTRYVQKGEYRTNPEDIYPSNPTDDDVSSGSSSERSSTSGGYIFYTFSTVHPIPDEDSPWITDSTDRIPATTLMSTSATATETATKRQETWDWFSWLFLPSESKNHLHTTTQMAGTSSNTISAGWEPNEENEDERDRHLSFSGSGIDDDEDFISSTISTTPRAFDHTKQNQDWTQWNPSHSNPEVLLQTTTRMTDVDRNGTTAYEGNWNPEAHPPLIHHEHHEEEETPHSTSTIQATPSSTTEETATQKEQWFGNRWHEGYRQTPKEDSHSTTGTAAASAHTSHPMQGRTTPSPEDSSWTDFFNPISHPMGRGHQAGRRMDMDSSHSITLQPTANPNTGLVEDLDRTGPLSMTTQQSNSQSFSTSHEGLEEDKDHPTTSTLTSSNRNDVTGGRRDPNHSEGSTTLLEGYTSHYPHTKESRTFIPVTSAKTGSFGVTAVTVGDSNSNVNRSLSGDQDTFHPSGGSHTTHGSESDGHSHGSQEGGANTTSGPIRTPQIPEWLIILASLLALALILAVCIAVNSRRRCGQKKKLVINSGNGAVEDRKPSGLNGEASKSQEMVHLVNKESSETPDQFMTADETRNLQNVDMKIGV
Procedure: A) WKG*-IRDye800 and anti-CD44-AF488 bind intensely to the surface (arrows) of SK-Hep1 human HCC cells. A Pearson's correlation coefficient of r=0.81 was measured from the merged image. […] B) An apparent dissociation constant of kd=43 nM, R²=0.99, was measured for WKG*-IRDye800 binding to SK-Hep1 cells. The equilibrium dissociation constant kd=1/kₐ was calculated by performing using a least square fit of the data to the non-linear equation […]. I₀ and Iₘₐₓ are the initial and maximum fluorescence intensities, corresponding to no peptide and at saturation, respectively, and [X] represents the concentration of the bound peptide. Results are the mean values from 3 independent experiments. C) Serum stability of WKG*-IRDye800 (200 μM in 200 μL of PBS) in mice (n=5) was measured following intravenous injection. […] The fluorescence intensity I(t) was measured and fit to a first-order kinetics model I(t)=Iₒ+A×exp(−Bt), and a serum half-life of T_{1/2}=5.1 hours was calculated.
The apparent dissociation constant (kd) of the IRDye800-labeled WKG* peptide monomer was measured to provide an estimate of binding affinity. […] Fluorescence intensities were measured with flow cytometry. WKG*-IRDye800 was incubated with SK-Hep1 cells over concentrations ranging from 0-200 nM, and the fluorescence intensity was measured with flow cytometry. […]

[7] = target: T2, Epithelial cell adhesion molecule (EpCAM) (human, UniProt P16422 24-314); experiment: fluorescence microscopy, 5 uM on CCA-156 cells
T2 construct: whole, on cells; Endogenous target on human HCC cells and tissues
T2 sequence (looked up): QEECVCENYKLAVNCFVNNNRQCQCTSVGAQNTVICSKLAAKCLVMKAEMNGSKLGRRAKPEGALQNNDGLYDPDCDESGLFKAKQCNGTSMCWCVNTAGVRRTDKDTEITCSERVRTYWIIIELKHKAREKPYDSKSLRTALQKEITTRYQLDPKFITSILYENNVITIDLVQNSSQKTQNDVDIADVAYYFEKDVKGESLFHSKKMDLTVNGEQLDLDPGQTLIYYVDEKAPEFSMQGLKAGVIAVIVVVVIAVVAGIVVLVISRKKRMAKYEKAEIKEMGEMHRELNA
Procedure: (§2) Approximately 10³ CCA-156 cells were grown on the cover glass in a 24-well plate to ~90% confluence. The cells were washed with PBS twice and incubated with 5 μM of either Cy5.5-labeled peptide multimer or peptide monomer for 5 min on ice. The cells were then washed with PBS for 3X, fixed with 4% paraformaldehyde (PFA) in PBS for 15 min, washed with PBS for twice, then mounted on glass slides with ProLong Gold reagent containing DAPI (Invitrogen).

[8] = target: T1, CD44 (cluster of differentiation 44); experiment: quantified fluorescence on CCA-156 cells, 5 uM; multimer signal comes from cells that carry GPC3, CD44 and EpCAM
Procedure: as §2

Glypican-3 (GPC3) = target: T3, Glypican-3 (GPC3) (human, UniProt P51654 25-554); experiment: as above
T3 construct: whole, on cells; Endogenous target on human HCC cells and tissues
T3 sequence (P51654 25-554 limits assumed): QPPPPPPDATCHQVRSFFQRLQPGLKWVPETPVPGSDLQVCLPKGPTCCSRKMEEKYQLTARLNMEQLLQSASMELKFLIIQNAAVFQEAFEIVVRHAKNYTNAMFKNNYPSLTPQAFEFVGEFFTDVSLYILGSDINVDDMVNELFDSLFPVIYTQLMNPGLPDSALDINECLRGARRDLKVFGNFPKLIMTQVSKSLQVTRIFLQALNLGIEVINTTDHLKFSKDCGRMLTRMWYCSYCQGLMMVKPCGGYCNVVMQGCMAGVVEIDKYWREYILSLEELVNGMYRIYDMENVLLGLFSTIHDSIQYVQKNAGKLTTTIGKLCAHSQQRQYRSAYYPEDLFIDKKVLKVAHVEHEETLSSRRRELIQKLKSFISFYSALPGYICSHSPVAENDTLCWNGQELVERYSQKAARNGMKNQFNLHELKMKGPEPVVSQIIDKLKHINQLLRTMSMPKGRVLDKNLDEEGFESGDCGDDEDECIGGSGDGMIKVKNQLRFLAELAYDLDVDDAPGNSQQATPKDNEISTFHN
Procedure: as §2

[9] = target: T2, Epithelial cell adhesion molecule …; experiment: as above
Procedure: as §2

Kd [6]: 43 nM
B1: WKG*-IRDye800 (IRDye800-labeled WKG* peptide monomer, WKGWSYLWTQQA) (peptide)
peptide: WKGWSYLWTQQA
modifications: also: IRDye800 label, site not given here
notes: also called IRDye800-labeled WKD* monomer peptide

binding result [7]: binds
Molecule: HPDMFTRTHSHN (also: Cy5.5 label, site and linker not given here) [HPD*-Cy5.5 (Cy5.5-labeled EpCAM peptide monomer, HPDMFTRTHSHN)]

fold increase of fluorescence intensity versus the CD44 monomer WKG*-Cy5.5 [8]: 1.84 fold
fold increase of fluorescence intensity versus the GPC3 monomer ALL*-Cy5.5 (Glypican-3 (GPC3)): 5.48 fold
fold increase of fluorescence intensity versus the EpCAM monomer HPD*-Cy5.5 [9]: 2 fold
B2: Cy5.5-labeled peptide multimer (ALL*, WKG* and HPD* on a tri-lysine linker) (designed binder)
peptide 1: ALLANHEELFQT
peptide 2: WKGWSYLWTQQA
peptide 3: HPDMFTRTHSHN
modifications: also: each peptide joined through PEG3 extension to a tri-lysine linker, Cy5.5 label, site not given here
notes: also called Cy5.5-labeled multimer; not shown: The branched tri-lysine linker with PEG3 extensions and the Cy5.5 label

More lines, now with the values behind:

Molecule: O=C([O-])CN1CCN(CC(=O)[O-])CCN(CC(=O)O)CCN(CC(=O)[O-])CC1.[Gd+3] [free Gd-DOTA, Gd-DOTA]
T/B ratio [1]: 0.99±0.04

Molecule: HPD*-IRDye800: lead EpCAM peptide HPDMFTRTHSHN (SEQ ID NO: 7) labeled with IRDye800 (also: IRDye800 label, site not given here)
NIR fluorescence intensity versus control PFH*-IRDye800 [2]: significantly greater

Molecule: CC(C)C[C@H](NC(=O)[C@H](Cc1ccc(O)cc1)NC(=O)[C@H](CO)NC(=O)[C@H](Cc1c[nH]c2ccccc12)NC(=O)CNC(=O)[C@H](CCCCN)NC(=O)[C@@H](N)Cc1c[nH]c2ccccc12)C(=O)N[C@@H](Cc1c[nH]c2ccccc12)C(=O)N[C@H](C(=O)N[C@@H](CCC(N)=O)C(=O)N[C@@H](CCC(N)=O)C(=O)N[C@@H](C)C(=O)NCC(=O)NCC(=O)NCC(=O)N[C@@H](CO)C(=O)N[C@@H](CCCCNC(=O)CCCCCN1C(=CC=C2CCCC(C=CC3=[N+](CCCCS(=O)(=O)[O-])c4ccc(S(=O)(=O)O)cc4C3(C)C)=C2Oc2ccc(S(=O)(=O)O)cc2)C(C)(C)c2cc(S(=O)(=O)O)ccc21)C(N)=O)[C@@H](C)O [WKG*-IRDye800] (H-WKGWSYLWTQQAGGGSK(IRDye800CW)-NH2)
binding to the surface of SK-Hep1 cells (CD44 [3]): bind intensely
Pearson's correlation coefficient, peptide and anti-CD44-AF488 (CD44 [3]; merged image): 0.81
Kd (CD44 [4]): 43 nM
half-life [5]: 5.1 h
